Series [1] concerns the target T1, Receptor-interacting serine/threonine-protein kinase 2 (Homo sapiens, UniProt O43353). Kind of series: Inhibition of N-terminal polyHis-tagged human RIPK2 (8 to 310 residues) expressed in Sf9 cells using MBP as substrate preincubated for 15 mins followed by ATP addition measured after 90 mins by ADP-Glo assay. In general terms: In ADP-Glo the light output rises with the ADP produced.

Series [2] has as its target T2, Receptor-interacting serine/threonine-protein kinase 3 (Homo sapiens, UniProt Q9Y572). Briefly: Inhibition of N-terminal polyHis-tagged human RIPK3 (1 to 307 residues) expressed in Sf9 cells using MBP as substrate upto 10 uM preincubated for 15 mins followed by ATP addition measured after 90 mins by ADP-Glo assay. Particulars: time 105.0 min.
Target sequence in this assay (Q9Y572 whole entry, looked up, the tested form may be a part): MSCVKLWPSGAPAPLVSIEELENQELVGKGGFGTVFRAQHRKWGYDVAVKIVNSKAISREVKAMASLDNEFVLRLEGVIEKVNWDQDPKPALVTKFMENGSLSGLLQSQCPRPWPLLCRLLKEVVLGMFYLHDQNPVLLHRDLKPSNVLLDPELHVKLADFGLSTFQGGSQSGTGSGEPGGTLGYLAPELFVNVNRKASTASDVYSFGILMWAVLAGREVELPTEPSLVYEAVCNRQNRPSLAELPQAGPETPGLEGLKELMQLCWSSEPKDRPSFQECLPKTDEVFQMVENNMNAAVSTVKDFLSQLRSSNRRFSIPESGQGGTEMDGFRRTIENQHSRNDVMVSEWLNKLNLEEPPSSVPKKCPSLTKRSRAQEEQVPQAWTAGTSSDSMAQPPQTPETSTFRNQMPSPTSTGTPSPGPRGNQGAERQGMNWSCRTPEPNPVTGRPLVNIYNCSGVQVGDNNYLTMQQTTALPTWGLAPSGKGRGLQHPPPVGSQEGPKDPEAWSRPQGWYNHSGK
Series [3] concerns the target T3, Receptor-interacting serine/threonine-protein kinase 1 (Homo sapiens, UniProt Q13546).
T3 sequence (Q13546 whole entry): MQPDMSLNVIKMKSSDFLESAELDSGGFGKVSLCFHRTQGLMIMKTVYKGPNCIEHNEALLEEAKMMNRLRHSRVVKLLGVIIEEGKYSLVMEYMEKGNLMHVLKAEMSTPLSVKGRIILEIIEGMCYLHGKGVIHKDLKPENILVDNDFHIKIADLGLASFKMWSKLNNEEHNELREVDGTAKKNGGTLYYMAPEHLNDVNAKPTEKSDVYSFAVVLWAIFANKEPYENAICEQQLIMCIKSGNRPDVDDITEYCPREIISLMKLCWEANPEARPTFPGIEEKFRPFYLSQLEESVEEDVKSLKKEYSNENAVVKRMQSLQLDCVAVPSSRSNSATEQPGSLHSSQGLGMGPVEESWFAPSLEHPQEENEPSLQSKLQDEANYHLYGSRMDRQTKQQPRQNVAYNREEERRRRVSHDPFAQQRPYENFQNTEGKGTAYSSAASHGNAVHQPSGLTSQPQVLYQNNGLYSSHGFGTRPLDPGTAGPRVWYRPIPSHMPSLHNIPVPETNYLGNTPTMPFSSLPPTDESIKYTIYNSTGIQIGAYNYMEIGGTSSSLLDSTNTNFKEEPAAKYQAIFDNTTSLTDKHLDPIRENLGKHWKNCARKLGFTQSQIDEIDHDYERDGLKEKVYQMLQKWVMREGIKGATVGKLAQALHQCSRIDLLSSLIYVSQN
Kind of series: Inhibition of N-terminal polyHis-tagged human RIPK1 (1 to 321 residues) expressed in Sf9 cells using MBP as substrate preincubated for 15 mins followed by ATP addition measured after 90 mins by ADP-Glo assay.

Series [4] has as its target T4, Receptor-interacting serine/threonine-protein kinase 4 (Homo sapiens, UniProt P57078).
T4 sequence (P57078 whole entry): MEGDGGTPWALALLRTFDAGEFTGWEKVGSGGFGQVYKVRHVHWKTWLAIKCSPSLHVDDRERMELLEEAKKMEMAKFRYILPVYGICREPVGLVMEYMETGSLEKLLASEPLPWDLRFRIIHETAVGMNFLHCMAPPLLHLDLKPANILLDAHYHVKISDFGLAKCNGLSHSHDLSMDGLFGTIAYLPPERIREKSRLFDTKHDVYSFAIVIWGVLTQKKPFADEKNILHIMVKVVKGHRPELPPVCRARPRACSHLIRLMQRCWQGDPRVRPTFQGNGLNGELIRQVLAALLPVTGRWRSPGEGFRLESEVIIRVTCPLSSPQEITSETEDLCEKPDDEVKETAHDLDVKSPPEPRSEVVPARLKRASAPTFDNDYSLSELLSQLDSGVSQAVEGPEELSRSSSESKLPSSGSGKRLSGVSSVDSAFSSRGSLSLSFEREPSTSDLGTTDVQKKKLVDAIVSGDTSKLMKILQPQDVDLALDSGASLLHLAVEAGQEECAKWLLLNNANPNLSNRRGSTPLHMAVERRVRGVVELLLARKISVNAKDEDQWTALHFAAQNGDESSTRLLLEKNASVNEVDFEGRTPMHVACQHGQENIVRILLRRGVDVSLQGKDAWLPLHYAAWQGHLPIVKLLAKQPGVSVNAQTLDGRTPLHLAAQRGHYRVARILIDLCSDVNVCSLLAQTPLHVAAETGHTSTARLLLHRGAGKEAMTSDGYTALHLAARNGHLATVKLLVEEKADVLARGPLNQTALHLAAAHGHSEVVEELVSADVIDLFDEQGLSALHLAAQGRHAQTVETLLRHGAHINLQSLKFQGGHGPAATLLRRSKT
Kind of series: Inhibition of N-terminal polyHis-tagged human RIPK4 (1 to 321 residues) expressed in Sf9 cells using MBP as substrate preincubated for 15 mins followed by ATP addition measured after 90 mins by ADP-Glo assay.

In series [5] the target is T1, Receptor-interacting serine/threonine-protein kinase 2. Kind of series: Inhibition of RIPK2-mediated NF-kappaB signalling in C14-TriLAN-Gly-treated human THP-1 cells upto 10 uM preincubated for 30 mins followed by C14-TriLAN-Gly addition measured after 24 hrs by luminescence based assay. It counts as cell-based.
The target is the same in series [6]. Briefly: Inhibition of RIPK2-mediated NF-kappaB signalling in MDP-treated human THP-1 cells upto 10 uM preincubated for 30 mins followed by MDP addition measured after 24 hrs by luminescence based assay. It counts as cell-based.
Series [7] shares this target. Briefly: Inhibition of RIPK2-mediated NF-kappaB signalling in C14-TriLAN-Gly-treated human THP-1 cells preincubated for 30 mins followed by C14-TriLAN-Gly addition measured after 24 hrs by luminescence based assay. Format: cell-based.
The target is the same in series [8]. Kind of series: Inhibition of RIPK2-mediated NF-kappaB signalling in MDP-treated human THP-1 cells preincubated for 30 mins followed by MDP addition measured after 24 hrs by luminescence based assay. It counts as cell-based.
The nature of series [9]: Metabolic stability in human liver microsomes assessed as compound remaining at 10 uM incubated for 45 mins by ECHO-MS analysis. Format: ADME, Microsome. As to conditions: for remaining at 0.75 h, 10 µM: liver microsomes, read-out: Stability. For orientation: Liver microsomes are a subcellular fraction often used to study metabolism.
Series [10] can be described thus: Metabolic stability in mouse liver microsomes assessed as compound remaining at 10 uM incubated for 45 mins by ECHO-MS analysis. As to conditions: read-out: Stability. It counts as ADME, Microsome.
A short description of series [11]: Metabolic stability in human plasma assessed as compound remaining at 5 uM incubated for 120 mins by ECHO-MS analysis. Format: ADME, cell-free. As to conditions: for Stability: 2 h, 5 µM; for remaining at 2 h, 5 µM: read-out: Stability.
A short description of series [12]: Metabolic stability in mouse plasma assessed as compound remaining at 5 uM incubated for 120 mins by ECHO-MS analysis. Format: ADME, cell-free. As to conditions: for remaining at 2 h, 5 µM: read-out: Stability.
Series [13] has as its target T2, Receptor-interacting serine/threonine-protein kinase 3. Kind of series: Inhibition of N-terminal polyHis-tagged human RIPK3 (1 to 307 residues) expressed in Sf9 cells using MBP as substrate preincubated for 15 mins followed by ATP addition measured after 90 mins by ADP-Glo assay.
Target sequence in this assay (Q9Y572 whole entry, the tested form may be a part): as the sequence (Q9Y572 whole entry, looked up, the tested form may be a part) above
The subject of series [14] is HT-29. Briefly: Cytotoxicity against human HT-29 cells assessed as cell viability at 10 uM incubated for 24 hrs by Cell Titer Glo assay. Format: toxicity, cell-based. Particulars: ht-29, 24 h. (ATP-based viability assays read luminescence as a measure of living cells.)
The target of series [15] is Vascular endothelial growth factor receptor 2 (Homo sapiens) (UniProt P35968). Briefly: Inhibition of human KDR relative to control. Also on record: concentration or dose not given beside the values. Particulars: concentration not given here.
Sequence of Vascular endothelial growth factor receptor 2 (Homo sapiens) (P35968 whole entry): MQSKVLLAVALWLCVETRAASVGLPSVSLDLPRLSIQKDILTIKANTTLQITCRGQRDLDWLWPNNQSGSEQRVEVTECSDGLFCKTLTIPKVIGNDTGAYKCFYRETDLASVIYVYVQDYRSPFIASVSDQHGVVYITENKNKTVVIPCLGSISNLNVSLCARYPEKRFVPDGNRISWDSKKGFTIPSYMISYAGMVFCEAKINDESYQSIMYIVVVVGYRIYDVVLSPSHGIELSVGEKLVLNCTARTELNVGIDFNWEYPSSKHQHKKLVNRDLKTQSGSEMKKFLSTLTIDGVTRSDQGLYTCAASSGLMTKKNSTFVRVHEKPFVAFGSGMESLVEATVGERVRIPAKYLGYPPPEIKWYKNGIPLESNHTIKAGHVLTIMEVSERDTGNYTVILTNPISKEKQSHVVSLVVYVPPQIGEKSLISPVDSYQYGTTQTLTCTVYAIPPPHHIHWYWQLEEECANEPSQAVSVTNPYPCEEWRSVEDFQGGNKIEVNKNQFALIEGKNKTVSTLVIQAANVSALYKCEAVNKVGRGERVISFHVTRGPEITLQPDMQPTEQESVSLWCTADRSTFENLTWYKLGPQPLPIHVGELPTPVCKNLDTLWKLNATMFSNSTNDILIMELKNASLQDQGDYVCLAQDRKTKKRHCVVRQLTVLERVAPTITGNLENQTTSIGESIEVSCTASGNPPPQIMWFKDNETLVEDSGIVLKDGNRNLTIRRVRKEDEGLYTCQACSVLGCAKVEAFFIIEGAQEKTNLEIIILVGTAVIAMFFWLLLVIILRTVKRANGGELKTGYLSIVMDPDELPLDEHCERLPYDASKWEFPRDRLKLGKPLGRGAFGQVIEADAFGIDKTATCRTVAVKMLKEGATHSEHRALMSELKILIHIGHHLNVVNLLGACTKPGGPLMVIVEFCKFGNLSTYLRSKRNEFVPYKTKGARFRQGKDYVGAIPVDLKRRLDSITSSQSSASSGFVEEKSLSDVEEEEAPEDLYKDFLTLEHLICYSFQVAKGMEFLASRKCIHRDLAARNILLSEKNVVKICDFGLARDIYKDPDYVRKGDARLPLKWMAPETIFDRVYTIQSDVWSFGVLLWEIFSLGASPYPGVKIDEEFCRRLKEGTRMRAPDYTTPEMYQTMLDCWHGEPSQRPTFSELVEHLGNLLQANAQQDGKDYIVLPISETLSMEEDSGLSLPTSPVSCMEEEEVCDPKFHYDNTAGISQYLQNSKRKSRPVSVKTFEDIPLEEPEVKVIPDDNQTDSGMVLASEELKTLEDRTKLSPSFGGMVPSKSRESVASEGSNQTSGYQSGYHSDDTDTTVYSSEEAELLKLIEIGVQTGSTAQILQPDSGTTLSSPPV
In series [16] the target is Epidermal growth factor receptor (Homo sapiens) (UniProt P00533). Briefly: Inhibition of human EGFR relative to control. As to conditions: concentration not given here.
Sequence of Epidermal growth factor receptor (Homo sapiens) (P00533 whole entry): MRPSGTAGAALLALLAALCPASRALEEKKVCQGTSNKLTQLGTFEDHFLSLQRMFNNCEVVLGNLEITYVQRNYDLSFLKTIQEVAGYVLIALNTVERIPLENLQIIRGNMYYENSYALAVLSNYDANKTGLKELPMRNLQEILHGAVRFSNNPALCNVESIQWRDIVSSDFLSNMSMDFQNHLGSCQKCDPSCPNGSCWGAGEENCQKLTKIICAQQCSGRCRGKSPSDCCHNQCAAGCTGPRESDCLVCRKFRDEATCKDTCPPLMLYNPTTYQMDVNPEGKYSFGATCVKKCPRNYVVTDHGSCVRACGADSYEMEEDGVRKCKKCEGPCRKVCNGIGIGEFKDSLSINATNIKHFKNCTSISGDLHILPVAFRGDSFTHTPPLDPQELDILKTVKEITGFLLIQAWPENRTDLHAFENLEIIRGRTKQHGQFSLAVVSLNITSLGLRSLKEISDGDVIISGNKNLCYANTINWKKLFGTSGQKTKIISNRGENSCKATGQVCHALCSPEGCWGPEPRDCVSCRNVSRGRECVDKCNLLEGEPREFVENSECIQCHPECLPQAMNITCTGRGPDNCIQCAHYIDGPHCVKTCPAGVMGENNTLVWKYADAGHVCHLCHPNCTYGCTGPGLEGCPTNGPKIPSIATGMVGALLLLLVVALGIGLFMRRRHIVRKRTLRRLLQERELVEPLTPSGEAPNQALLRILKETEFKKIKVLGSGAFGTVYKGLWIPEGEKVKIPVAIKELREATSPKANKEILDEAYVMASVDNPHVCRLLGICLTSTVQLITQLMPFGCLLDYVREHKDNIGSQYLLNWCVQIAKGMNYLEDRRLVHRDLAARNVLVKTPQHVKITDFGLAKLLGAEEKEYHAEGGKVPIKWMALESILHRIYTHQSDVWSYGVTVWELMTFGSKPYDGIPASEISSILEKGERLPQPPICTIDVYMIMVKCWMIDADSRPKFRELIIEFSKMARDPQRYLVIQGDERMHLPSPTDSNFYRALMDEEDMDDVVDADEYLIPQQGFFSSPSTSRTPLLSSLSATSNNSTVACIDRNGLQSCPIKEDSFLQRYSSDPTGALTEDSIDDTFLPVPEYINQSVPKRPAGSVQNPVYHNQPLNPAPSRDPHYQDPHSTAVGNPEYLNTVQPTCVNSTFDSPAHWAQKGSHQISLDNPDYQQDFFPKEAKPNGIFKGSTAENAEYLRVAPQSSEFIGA

Activity calls are given as the source filed them. No cut-off for these calls is given here.

T1 sequence (O43353 whole entry, the tested form may be a part): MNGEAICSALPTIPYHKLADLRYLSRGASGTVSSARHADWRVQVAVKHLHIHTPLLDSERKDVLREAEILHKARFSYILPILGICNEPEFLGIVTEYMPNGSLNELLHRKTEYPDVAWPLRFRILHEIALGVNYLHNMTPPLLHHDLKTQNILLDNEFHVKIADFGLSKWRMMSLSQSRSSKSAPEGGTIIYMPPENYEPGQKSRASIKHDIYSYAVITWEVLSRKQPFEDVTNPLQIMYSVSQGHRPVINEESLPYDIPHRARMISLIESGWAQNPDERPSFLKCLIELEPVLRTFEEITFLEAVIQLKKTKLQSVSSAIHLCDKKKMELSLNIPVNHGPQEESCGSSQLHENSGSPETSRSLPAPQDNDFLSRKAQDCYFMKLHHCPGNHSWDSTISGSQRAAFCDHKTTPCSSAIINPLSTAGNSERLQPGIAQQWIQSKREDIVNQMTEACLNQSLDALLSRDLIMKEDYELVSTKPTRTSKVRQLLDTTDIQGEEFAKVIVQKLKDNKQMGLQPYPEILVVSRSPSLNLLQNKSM

By IC50 is commonly meant the concentration that inhibits the measured activity by half. What is called inhibition is how much of the control response was suppressed. Take `COc1cccc(-c2ccc3ncnc(Nc4ccc5scnc5c4)c3c2)n1`: the IC50 in series [1] is 49 nM; in series [3], over 50 µM; in [4] it was over 50 µM; in [5] it was “Not Active”; in series [6] it was “Not Active”. The inhibition result in [2] is “inactive”.

For the compound `Clc1cc2ncnc(Nc3ccc4scnc4c3)c2cc1-c1ccccc1`, in series [2], the inhibition result is “inactive”. Further, the IC50 was over 50 µM in [3], over 50 µM in series [4], “Not Active” in series [5] and “Not Active” in [6].

For `Cn1ccnc1-c1cc2c(Nc3ccc4scnc4c3)ncnc2cc1Cl`, the IC50 in [1] was 3 nM; in series [3], over 50 µM; in [4], over 50 µM; in [7], 183 nM; in series [8] it was 58 nM. Further, the inhibition result in [2] is “inactive”. Further, the values for the remaining at 0.75 h, 10 µM in series [9] and in [10] were 105% and 115%, respectively. Moreover, the Stability in series [11] was determined as 141%; in series [12] (2 h, 5 µM), 135%.

As to `Cc1csc(-c2cc3c(Nc4ccc5scnc5c4)ncnc3cc2Cl)n1`, the inhibition result in series [2] was “inactive”. The IC50 is over 50 µM in [3], over 50 µM in series [4], “Not Active” in series [5] and “Not Active” in series [6].

For the compound `Cn1cncc1-c1cc2c(Nc3ccc4scnc4c3)ncnc2cc1Cl`, the IC50 was 7 nM in series [1]; over 50 µM in [3]; over 50 µM in [4]; 146 nM in series [7]; 54 nM in series [8]. Besides, the inhibition entry in series [2] is “inactive”. Also, the remaining at 0.75 h, 10 µM is 94% in series [9] and 105% in [10]. The Stability in series [11] is reported as 122%. The remaining at 2 h, 5 µM in series [12] worked out at 102%.

Take `Cc1nc(-c2ccc3ncnc(Nc4ccc5scnc5c4)c3c2)sc1C`: the IC50 in series [1] was 14 nM; in series [3], over 50 µM; in series [4], over 50 µM; in series [5] it was “Not Active”; in series [6] it was “Not Active”. Further, the inhibition result in [2] was “inactive”.

Consider `Cc1ccsc1-c1cc2c(Nc3ccc4scnc4c3)ncnc2cc1-c1cccc(CO)c1`, for which the IC50 was 4 nM in [1]; 122 nM in series [13]; over 50 µM in [3]; over 50 µM in [4]; 225 nM in series [7]; 229 nM in series [8]. The Activity entry in [14] was “Toxic”. Besides, the Stability in series [9] (microsomes, 0.75 h, 10 µM) was 123%. Moreover, the remaining at 0.75 h, 10 µM in series [10] was found to be 118%. Further, the remaining at 2 h, 5 µM in series [11] was determined as 113%; in series [12] it was 108%. The inhibition in series [15] is 85%.

As to `C1=C(c2cc3ncnc(Nc4ccc5scnc5c4)c3cc2-c2cccs2)COC1`, the IC50 is 5 nM in series [1]; 464 nM in series [13]; over 50 µM in series [3]; over 50 µM in series [4]; 51 nM in series [7]; 36 nM in series [8]. The remaining at 0.75 h, 10 µM was 108% in series [9] and 94% in [10]. In addition, the remaining at 2 h, 5 µM in series [11] was 107%; in series [12], 111%.

Take `COc1cccc(-c2cc3c(Nc4ccc5scnc5c4)ncnc3cc2Cl)n1`: the IC50 in [1] was 3900 nM; in series [3], over 50 µM; in [4], over 50 µM; in series [5], “Not Active”; in series [6], “Not Active”. Moreover, in series [2], the inhibition result was “inactive”.

As to `Cc1ccsc1-c1cc2c(Nc3ccc4scnc4c3)ncnc2cc1Cl`, the IC50 in [1] was 52 nM; in series [3], over 50 µM; in [4], over 50 µM; in [5], “Not Active”; in series [6], “Not Active”. In series [2], the inhibition entry was “inactive”.

With `Cn1cncc1-c1ccc2ncnc(Nc3ccc4scnc4c3)c2c1`, the IC50 was 4 nM in [1]; over 50 µM in series [3]; over 50 µM in series [4]; 119 nM in [7]; 115 nM in series [8]. The inhibition entry in [2] was “inactive”. In addition, the remaining at 0.75 h, 10 µM in series [9] was determined as 108%; in [10] it was 118%. Moreover, the Stability in [11] is 121%. For the same compound, in series [12], the remaining at 2 h, 5 µM worked out at 79%. The inhibition is 66% in [15] and 68% in series [16].

Turning to `CC(C)[N+](C)(CCOC(=O)C1c2ccccc2Oc2ccccc21)C(C)C` [PROPANTHELINE], the values for the remaining at 2 h, 5 µM in series [11] and in series [12] were 2% and 11%, respectively.

`Cn1cccc1-c1cc2c(Nc3ccc4scnc4c3)ncnc2cc1Cl`: the IC50 in series [1] is 8 nM; in series [3] it was over 50 µM; in series [4], over 50 µM; in series [5], “Not Active”; in series [6] it was “Not Active”. Also, the inhibition entry in series [2] was “inactive”.

As to `Cc1nc(-c2cc3c(Nc4ccc5scnc5c4)ncnc3cc2Cl)sc1C`, the inhibition result in series [2] was “inactive”. The half-maximal inhibitory concentration (IC50) in [3] was over 50 µM; in series [4], over 50 µM; in series [5], “Not Active”; in series [6], “Not Active”.

For `Clc1cc2ncnc(Nc3ccc4scnc4c3)c2cc1-c1cccs1`, the IC50 in series [1] is 14 nM; in series [3] it was over 50 µM; in [4], over 50 µM; in series [5] it was “Not Active”; in series [6], “Not Active”. The inhibition entry in series [2] was “inactive”.

These data come from ChEMBL document CHEMBL5625233, “Exploring positions 6 and 7 of a quinazoline-based scaffold leads to changes in selectivity and potency towards RIPK2/3 kinases” (Eur J Med Chem, 2023).
